Assay results from patent US20230183193A1, “4-DIFLUOROMETHYL BENZOYL AMIDES WITH HERBICIDAL ACTION” (BAYER CROPSCIENCE AKTIENGESELLSCHAFT, priority 2017, published 2023).

How the values were obtained:
Assay type in all cases: in vivo
[1] = tested on: Abutilon theophrasti; assay: Post-emergence herbicidal action, ABUTH; settings: 80 g/ha, Table D
Procedure, shortened: (§1)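 Post-emergence spray; one-leaf stage (2–3 wk after sowing), sandy loam, greenhouse. WP/EC in water, 600 to […], +0.2% wetting agent. Visual % damage vs untreated at ~3 wk; 100% = plants dead.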

[2] = tested on: Pharbitis purpureum; assay: Post-emergence herbicidal action, PHBPU; settings: 80 g/ha, Table D
Procedure, shortened: as §1

[3] = tested on: Avena fatua; assay: Pre-emergence herbicidal action, AVEFA; settings: dosage 320 g/ha, scored visually after 3 weeks vs untreated controls
Procedure, shortened: (§2)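 Percent herbicidal activity rated by eye 3 weeks after pre-emergence soil-surface application, compared with untreated pots. Seeds sat under sandy loam; sprays carried 0.2% wetting agent.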

[4] = tested on: Setaria viridis; assay: Pre-emergence herbicidal action, SETVI; settings: dosage 320 g/ha, scored visually after 3 weeks vs untreated controls
Procedure, shortened: as §2

[5] = tested on: Alopecurus myosuroides; assay: Post-emergence herbicidal action, ALOMY; settings: 80 g/ha, Table C
Procedure, shortened: as §1

[6] = tested on: Abutilon theophrasti; assay: Pre-emergence herbicidal action, ABUTH; settings: dosage 320 g/ha, scored visually after 3 weeks vs untreated controls
Procedure, shortened: as §2

[7] = tested on: Viola tricolor; assay: Pre-emergence herbicidal action, VIOTR; settings: dosage 320 g/ha, scored visually after 3 weeks vs untreated controls
Procedure, shortened: as §2

[8] = tested on: Matricaria inodora; assay: Pre-emergence herbicidal action, MATIN; settings: dosage 320 g/ha, scored visually after 3 weeks vs untreated controls
Procedure, shortened: as §2

[9] = tested on: Stellaria media; assay: Post-emergence herbicidal action, STEME; settings: 80 g/ha, Table D
Procedure, shortened: as §1

[10] = tested on: Avena fatua; assay: Post-emergence herbicidal action, AVEFA; settings: 80 g/ha, Table C
Procedure, shortened: as §1

[11] = tested on: Viola tricolor; assay: Post-emergence herbicidal action, VIOTR; settings: 80 g/ha, Table D
Procedure, shortened: as §1

[12] = tested on: ECHCG; assay: Post-emergence herbicidal action, ECHCG; settings: 80 g/ha, Table C
Procedure, shortened: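 Weed and crop plants grown in sandy loam in the greenhouse, treated at the one-leaf stage 2–3 weeks after sowing. Damage scored visually after about 3 weeks vs untreated controls (0% = control, 100% = dead).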

[13] = tested on: Alopecurus myosuroides; assay: Pre-emergence herbicidal action, ALOMY; settings: dosage 320 g/ha, scored visually after 3 weeks vs untreated controls
Procedure, shortened: as §2

[14] = tested on: Cyperus serotinus; assay: Pre-emergence herbicidal action, CYPES; settings: dosage 320 g/ha, scored visually after 3 weeks vs untreated controls
Procedure, shortened: as §2

[15] = tested on: Amaranthus retroflexus; assay: Pre-emergence herbicidal action, AMARE; settings: dosage 320 g/ha, scored visually after 3 weeks vs untreated controls
Procedure, shortened: as §2

[16] = tested on: Stellaria media; assay: Pre-emergence herbicidal action, STEME; settings: dosage 320 g/ha, scored visually after 3 weeks vs untreated controls
Procedure, shortened: as §2

[17] = tested on: Amaranthus retroflexus; assay: Post-emergence herbicidal action, AMARE; settings: 80 g/ha, Table D
Procedure, shortened: as §1

[18] = tested on: Setaria viridis; assay: Post-emergence herbicidal action, SETVI; settings: 80 g/ha, Table C
Procedure, shortened: as §1

CCn1nnnc1NC(=O)c1ccc(C(F)F)c([S+]([O-])CC)c1C (stereo not drawn) [Example 2-5]
90%: Herbicidal activity PHBPU [2] | herbicidal activity AVEFA [3] | herbicidal activity ALOMY [5] | Herbicidal activity STEME [16]
100%: herbicidal activity ABUTH [1] | herbicidal activity SETVI [4] | herbicidal activity ABUTH [6] | herbicidal activity VIOTR [7] | herbicidal activity MATIN [8] | Herbicidal activity STEME [9] | herbicidal activity AVEFA [10] | herbicidal activity VIOTR [11] | Herbicidal activity ECHCG [12] | herbicidal activity ALOMY [13] | herbicidal activity AMARE [15] | herbicidal activity AMARE [17] | herbicidal activity SETVI [18]
80%: herbicidal activity CYPES [14]

CCSc1c(C(F)F)ccc(C(=O)Nc2nnnn2CC)c1CC [Example 2-16]
100%: herbicidal activity ABUTH [1] | Herbicidal activity PHBPU [2] | herbicidal activity AVEFA [3] | herbicidal activity SETVI [4] | herbicidal activity ABUTH [6] | herbicidal activity VIOTR [7] | herbicidal activity MATIN [8] | Herbicidal activity STEME [9] | herbicidal activity VIOTR [11] | herbicidal activity ALOMY [13] | herbicidal activity CYPES [14] | herbicidal activity AMARE [15] | Herbicidal activity STEME [16] | herbicidal activity AMARE [17]
90%: herbicidal activity ALOMY [5] | herbicidal activity AVEFA [10] | Herbicidal activity ECHCG [12] | herbicidal activity SETVI [18]

CC[S+]([O-])c1c(C(F)F)ccc(C(=O)Nc2nnnn2C)c1Cl (stereo not drawn) [Example 1-53]
90%: Herbicidal activity ECHCG [12]
100%: herbicidal activity ABUTH [1] | Herbicidal activity PHBPU [2] | herbicidal activity AVEFA [3] | herbicidal activity SETVI [4] | herbicidal activity ALOMY [5] | herbicidal activity ABUTH [6] | herbicidal activity VIOTR [7] | herbicidal activity MATIN [8] | Herbicidal activity STEME [9] | herbicidal activity AVEFA [10] | herbicidal activity VIOTR [11] | herbicidal activity ALOMY [13] | herbicidal activity CYPES [14] | herbicidal activity AMARE [15] | Herbicidal activity STEME [16] | herbicidal activity AMARE [17] | herbicidal activity SETVI [18]

CCc1c(C(=O)Nc2nnnn2CC)ccc(C(F)F)c1[S+]([O-])CC (stereo not drawn) [Example 2-17]
100%: herbicidal activity ABUTH [1] | Herbicidal activity PHBPU [2] | herbicidal activity AVEFA [3] | herbicidal activity SETVI [4] | herbicidal activity ABUTH [6] | herbicidal activity VIOTR [7] | herbicidal activity MATIN [8] | Herbicidal activity STEME [9] | herbicidal activity AVEFA [10] | herbicidal activity VIOTR [11] | herbicidal activity ALOMY [13] | herbicidal activity CYPES [14] | herbicidal activity AMARE [15] | Herbicidal activity STEME [16] | herbicidal activity AMARE [17]
90%: herbicidal activity ALOMY [5] | Herbicidal activity ECHCG [12] | herbicidal activity SETVI [18]

CC[S+]([O-])c1c(C(F)F)ccc(C(=O)Nc2nnnn2C)c1C1CC1 (stereo not drawn) [Example 1-29]
90%: herbicidal activity AVEFA [10]
100%: herbicidal activity ABUTH [1] | Herbicidal activity PHBPU [2] | herbicidal activity AVEFA [3] | herbicidal activity SETVI [4] | herbicidal activity ALOMY [5] | herbicidal activity ABUTH [6] | herbicidal activity VIOTR [7] | herbicidal activity MATIN [8] | Herbicidal activity STEME [9] | herbicidal activity VIOTR [11] | Herbicidal activity ECHCG [12] | herbicidal activity ALOMY [13] | herbicidal activity CYPES [14] | herbicidal activity AMARE [15] | Herbicidal activity STEME [16] | herbicidal activity AMARE [17] | herbicidal activity SETVI [18]

CCc1c(C(=O)Nc2nnc(C)o2)ccc(C(F)F)c1S(=O)(=O)CC [Example 7-16]
100%: herbicidal activity ABUTH [1] | herbicidal activity AVEFA [3] | herbicidal activity SETVI [4] | herbicidal activity ABUTH [6] | herbicidal activity VIOTR [7] | herbicidal activity MATIN [8] | Herbicidal activity STEME [9] | herbicidal activity VIOTR [11] | herbicidal activity ALOMY [13] | herbicidal activity CYPES [14] | herbicidal activity AMARE [15] | Herbicidal activity STEME [16] | herbicidal activity AMARE [17] | herbicidal activity SETVI [18]
90%: Herbicidal activity PHBPU [2] | herbicidal activity ALOMY [5] | herbicidal activity AVEFA [10] | Herbicidal activity ECHCG [12]

CCSc1c(C(F)F)ccc(C(=O)Nc2ncnn2C)c1Cl [Example 4-52]
80%: herbicidal activity CYPES [14]
90%: herbicidal activity ABUTH [1] | herbicidal activity ALOMY [5] | Herbicidal activity STEME [9] | herbicidal activity VIOTR [11]
100%: Herbicidal activity PHBPU [2] | herbicidal activity AVEFA [3] | herbicidal activity SETVI [4] | herbicidal activity ABUTH [6] | herbicidal activity VIOTR [7] | herbicidal activity MATIN [8] | herbicidal activity AVEFA [10] | Herbicidal activity ECHCG [12] | herbicidal activity ALOMY [13] | herbicidal activity AMARE [15] | Herbicidal activity STEME [16] | herbicidal activity AMARE [17] | herbicidal activity SETVI [18]

CCn1nnnc1NC(=O)c1ccc(C(F)F)c([S+]([O-])CC)c1F (stereo not drawn) [Example 2-41]
80%: herbicidal activity ALOMY [5]
100%: herbicidal activity ABUTH [1] | herbicidal activity AVEFA [3] | herbicidal activity SETVI [4] | herbicidal activity ABUTH [6] | herbicidal activity VIOTR [7] | herbicidal activity MATIN [8] | Herbicidal activity STEME [9] | herbicidal activity VIOTR [11] | Herbicidal activity ECHCG [12] | herbicidal activity ALOMY [13] | herbicidal activity AMARE [15] | Herbicidal activity STEME [16] | herbicidal activity SETVI [18]
90%: Herbicidal activity PHBPU [2] | herbicidal activity AVEFA [10] | herbicidal activity CYPES [14] | herbicidal activity AMARE [17]

CCn1nnnc1NC(=O)c1ccc(C(F)F)c(S(C)(=O)=O)c1C1CC1 [Example 2-27]
90%: Herbicidal activity PHBPU [2] | herbicidal activity ALOMY [5]
100%: herbicidal activity ABUTH [1] | herbicidal activity AVEFA [3] | herbicidal activity SETVI [4] | herbicidal activity ABUTH [6] | herbicidal activity VIOTR [7] | herbicidal activity MATIN [8] | Herbicidal activity STEME [9] | herbicidal activity AVEFA [10] | herbicidal activity VIOTR [11] | Herbicidal activity ECHCG [12] | herbicidal activity ALOMY [13] | herbicidal activity CYPES [14] | herbicidal activity AMARE [15] | Herbicidal activity STEME [16] | herbicidal activity AMARE [17] | herbicidal activity SETVI [18]

CCSc1c(C(F)F)ccc(C(=O)Nc2nnc(C)o2)c1Br [Example 7-62]
100%: herbicidal activity ABUTH [1] | herbicidal activity SETVI [4] | herbicidal activity ABUTH [6] | herbicidal activity VIOTR [7] | Herbicidal activity STEME [9] | herbicidal activity AVEFA [10] | herbicidal activity VIOTR [11] | Herbicidal activity ECHCG [12] | herbicidal activity ALOMY [13] | herbicidal activity AMARE [15] | Herbicidal activity STEME [16] | herbicidal activity AMARE [17] | herbicidal activity SETVI [18]
90%: Herbicidal activity PHBPU [2] | herbicidal activity AVEFA [3] | herbicidal activity ALOMY [5] | herbicidal activity MATIN [8]
80%: herbicidal activity CYPES [14]

Cn1nnnc1NC(=O)c1ccc(C(F)F)c(S(C)(=O)=O)c1C1CC1 [Example 1-27]
100%: herbicidal activity ABUTH [1] | herbicidal activity AVEFA [3] | herbicidal activity SETVI [4] | herbicidal activity ALOMY [5] | herbicidal activity ABUTH [6] | herbicidal activity VIOTR [7] | herbicidal activity MATIN [8] | Herbicidal activity STEME [9] | herbicidal activity AVEFA [10] | herbicidal activity VIOTR [11] | Herbicidal activity ECHCG [12] | herbicidal activity ALOMY [13] | herbicidal activity CYPES [14] | herbicidal activity AMARE [15] | Herbicidal activity STEME [16] | herbicidal activity AMARE [17] | herbicidal activity SETVI [18]
90%: Herbicidal activity PHBPU [2]
